For this assay, the system named is LAB-1. Put plainly: Antibiotic sensitivity testing of LAB-1. Type of assay: cell-based. The following applies: LAB-1 organism. The method, then: A variety of biochemical tests were performed in order to identify the species and the genus of organism. The tests included: assessment of growth conditions, culture appearance, cell appearance and staining characteristics, optimal temperature and pH growth range, oxygen requirements, antibiotic sensitivity testing, tests for catalase and oxidase (using TAXOS N ? disks), amino acid utilization as carbon source, nitrogen fixation, motility test, and a variety of commercially available tests from MICRO-ID ? , OXYFERM ? , ENTEROTUBE ? and BIOLOG GN MICROPLATE ? .

From US7214792B2 (priority 1999, dated 2007) come the findings set out here.

Consider Polymyxin B, for which the “Antibiotic Susceptibility Results” value was “sensitive”.

As to Neomycin, the “Antibiotic Susceptibility Results” value is “sensitive”.

`[H]/N=C(/N)N[C@H]1[C@H](O)[C@@H](O)[C@H](O[C@@H]2O[C@@H](C)[C@](O)(C=O)[C@H]2O[C@@H]2O[C@@H](CO)[C@H](O)[C@@H](O)[C@@H]2NC)[C@@H](N/C(N)=N\[H])[C@@H]1O` [Streptomycin]: the “Antibiotic Susceptibility Results” value was “resistant”.

In the case of `CO[C@@H]1[C@@H](OC(N)=O)[C@@H](O)[C@H](Oc2ccc3c(O)c(NC(=O)c4ccc(O)c(CC=C(C)C)c4)c(=O)oc3c2C)OC1(C)C` [Novobiocin], the “Antibiotic Susceptibility Results” value is reported as “sensitive”.

For the molecule Penicillin, the “Antibiotic Susceptibility Results” value is given as “resistant”.

With `CC[C@H]1OC(=O)[C@H](C)[C@@H](O[C@H]2C[C@@](C)(OC)[C@@H](O)[C@H](C)O2)[C@H](C)[C@@H](O[C@@H]2O[C@H](C)C[C@H](N(C)C)[C@H]2O)[C@](C)(O)C[C@@H](C)C(=O)[C@H](C)[C@@H](O)[C@]1(C)O` [Erythromycin], the “Antibiotic Susceptibility Results” value is reported as “resistant”.

Regarding `CC1(C)S[C@@H]2[C@H](NC(=O)[C@H](N)c3ccccc3)C(=O)N2[C@H]1C(=O)O` [Ampicillin], the “Antibiotic Susceptibility Results” value is listed as “resistant”.

For the molecule `NCC[C@H](O)C(=O)N[C@@H]1C[C@H](N)[C@@H](O[C@H]2O[C@H](CN)[C@@H](O)[C@H](O)[C@H]2O)[C@H](O)[C@H]1O[C@H]1O[C@H](CO)[C@@H](O)[C@H](N)[C@H]1O` [Amikacin], the “Antibiotic Susceptibility Results” value is “sensitive”.
